Data reported in the supplement of paper PMC10307832.

Legend:
[1] = compound: COc1cc([C@@H]2c3cc4c(cc3[C@@H](O[C@@H]3O[C@@H]5CO[C@@H](C)O[C@H]5[C@H](O)[C@H]3O)[C@H]3COC(=O)[C@H]23)OCO4)cc(OC)c1O [Etoposide]; assay: relative viability (nuclei count vs DMSO), 5 days (fraction); higher = more cells survive
Method in brief: (§1)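 In 1536-well plates, lung cancer cell lines rested overnight at 37 °C before five library-drug doses (not always all listed), √10 apart, were pinned onto vehicle-anchored plates. Nuclei were counted with MetaXpress from 4× Hoechst images taken after 5 days without medium change. Viability compares treated-well with vehicle-well nuclei as a median over plates, and plates needed control CV below 25% plus at least one doubling to pass.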

[2] = compound: CC1=C(N=C(N=C1N)[C@H](CC(=O)N)NC[C@@H](C(=O)N)N)C(=O)N[C@@H]([C@H](C2=CN=CN2)OC3C(C(C(C(O3)CO)O)O)OC4C(C(C(C(O4)CO)O)OC(=O)N)O)C(=O)N[C@H](C)[C@H]([C@H](C)C(=O)N[C@@H]([C@@H](C)O)C(=O)NCCC5=NC(=CS5)C6=NC(=CS6)C(=O)NCCC[S+](C)C)O [Bleomycin]; assay: as above; conditions: main component drawn
Method in brief: as §1

Cell Line	relative viability ([1]; 0.01 µM)	relative viability ([1]; 0.03162 µM)	relative viability ([1]; 0.1 µM)	relative viability ([1]; 0.3162 µM)	relative viability ([1]; 1 µM)	relative viability ([2]; 0.01 µM)	relative viability ([2]; 0.03162 µM)	relative viability ([2]; 0.1 µM)	relative viability ([2]; 0.3162 µM)	relative viability ([2]; 1 µM)
201T	0.906	0.988	0.845	0.881	0.526	0.909	0.95	0.922	0.756	0.634
A549	0.875	0.947	0.476	0.281	0.131	0.843	0.789	0.608	0.132	0.0828
A-427	0.968	1.12	0.699	0.612	0.237	0.795	0.811	0.748	0.326	0.2
ABC-1	1.08	0.954	0.697	0.41	0.273	0.741	0.942	0.891	0.383	0.29
BEN	0.932	0.986	–	1	0.913	0.94	0.943	0.973	0.638	0.742
CAL-12T	0.946	1.04	0.797	0.726	0.333	0.755	0.824	0.545	0.273	0.202
COR-L23	0.865	1.05	0.976	0.704	0.324	0.831	0.799	0.586	0.188	0.129
COR-L 105	0.979	0.98	0.638	0.823	0.662	0.943	0.87	0.759	0.556	0.404
Calu-6	0.938	0.985	1.05	0.684	0.365	0.77	0.784	0.495	0.205	0.174
ChaGo-K-1	1.04	1.06	0.858	0.481	0.308	0.832	0.895	0.846	0.58	0.387
EBC-1	0.977	1.06	0.714	0.872	0.562	0.893	0.951	0.905	0.836	0.602
EKVX	0.998	1.01	0.637	0.741	0.377	0.928	0.898	0.797	0.374	0.321
EMC-BAC-2	0.964	0.959	0.453	0.278	0.234	0.72	0.91	0.747	0.418	0.302
EPLC-272H	1.05	1.09	0.658	0.815	0.513	0.811	0.882	0.434	0.132	0.151
H3255	0.962	1.09	0.73	0.725	0.433	0.837	1.02	0.821	0.61	0.502
HARA	0.856	1.18	0.979	0.849	0.348	0.804	0.769	0.842	0.506	0.537
HCC-15	1.01	1.07	1	0.485	0.182	0.937	0.873	0.879	0.424	0.382
HCC-44	1.06	1.03	1.02	0.899	0.594	0.587	0.445	0.361	0.226	0.209
HCC-78	0.942	1.09	0.687	0.515	0.273	0.788	0.994	0.883	0.564	0.642
HCC-366	0.992	1.07	0.769	0.377	0.0702	0.923	0.722	0.591	0.182	0.0724
HCC-827	1.07	1.08	0.965	0.659	0.258	0.983	1.08	0.9	0.577	0.277
HOP-62	1.06	1.11	0.824	0.712	0.372	0.47	0.473	0.257	0.183	0.107

Cell Line	relative viability ([1]; 0.01 µM)	relative viability ([1]; 0.03162 µM)	relative viability ([1]; 0.1 µM)	relative viability ([1]; 0.3162 µM)	relative viability ([1]; 1 µM)	relative viability ([2]; 0.01 µM)	relative viability ([2]; 0.03162 µM)	relative viability ([2]; 0.1 µM)	relative viability ([2]; 0.3162 µM)	relative viability ([2]; 1 µM)
IA-LM	0.88	0.946	0.742	0.875	0.655	0.873	0.852	0.839	0.347	0.356
LC-2-ad	0.974	1.07	0.837	0.718	0.261	0.756	0.726	0.549	0.262	0.192
LCLC-97TM1	0.945	1.14	0.634	0.468	0.138	0.394	0.525	0.258	0.16	0.0918
LCLC-103H	0.976	1.15	0.879	0.942	0.864	0.916	0.94	0.982	0.569	0.382
LK-2	0.979	1.31	0.684	0.663	0.268	0.686	0.575	0.485	0.28	0.277
LOU-NH91	0.978	1.01	0.853	0.826	0.486	0.838	0.689	0.614	0.448	0.339
LU99A	0.934	1.17	0.499	0.681	0.233	0.766	0.794	0.659	0.407	0.242
LXF-289	1.05	1.04	1.13	0.878	0.311	0.94	0.972	0.912	0.539	0.231
NCI-H23	1.02	1.03	0.671	0.371	0.212	0.458	0.439	0.304	0.218	0.161
NCI-H322M	0.947	1.05	0.822	0.838	0.52	0.861	1.02	0.928	0.568	0.54
NCI-H358	0.985	0.982	0.564	0.302	0.17	0.879	0.944	0.829	0.445	0.428
NCI-H441	0.923	1.03	0.751	0.308	0.172	0.626	0.922	0.862	0.651	0.42
NCI-H460	0.899	0.933	0.785	0.164	0.0591	0.738	0.661	0.483	0.0877	0.0714
NCI-H520	0.881	0.879	0.636	0.87	0.709	0.901	0.92	0.816	0.747	0.602
NCI-H522	0.977	1.04	0.811	0.928	0.743	0.833	0.79	0.666	0.432	0.345
NCI-H596	0.866	1.03	0.685	0.877	0.734	0.775	0.754	0.637	0.377	0.412
NCI-H647	0.815	1.07	0.815	0.442	0.195	0.397	0.369	0.237	0.125	0.0764
NCI-H650	0.949	0.98	0.68	0.561	0.256	0.743	1.11	0.768	0.492	0.242
NCI-H661	1.03	1.03	0.873	0.827	0.565	0.907	0.875	0.767	0.475	0.394
NCI-H727	0.945	1.04	0.586	0.87	0.852	0.891	0.777	0.831	0.391	0.687
NCI-H838	0.963	1.03	0.719	0.773	0.351	0.692	0.436	0.301	0.229	0.213
NCI-H1299	1.01	0.995	1.07	0.932	0.779	0.937	1.03	0.936	0.601	0.287

Cell Line	relative viability ([1]; 0.01 µM)	relative viability ([1]; 0.03162 µM)	relative viability ([1]; 0.1 µM)	relative viability ([1]; 0.3162 µM)	relative viability ([1]; 1 µM)	relative viability ([2]; 0.01 µM)	relative viability ([2]; 0.03162 µM)	relative viability ([2]; 0.1 µM)	relative viability ([2]; 0.3162 µM)	relative viability ([2]; 1 µM)
NCI-H1355	0.947	1.08	0.535	0.713	0.33	0.935	1.02	0.979	0.482	0.297
NCI-H1395	0.872	0.961	0.804	0.781	0.658	0.753	0.833	0.603	0.476	0.398
NCI-H1437	1.04	1.07	0.999	0.68	0.343	0.879	0.985	0.886	0.654	0.567
NCI-H1563	0.816	0.974	0.791	0.641	0.55	0.843	0.836	0.783	0.625	0.652
NCI-H1623	0.859	0.907	0.687	0.818	0.303	0.84	0.936	0.807	0.466	0.469
NCI-H1648	–	1.01	0.783	0.674	0.516	0.71	0.696	0.773	0.608	0.68
NCI-H1650	0.897	0.903	0.739	0.38	0.161	0.584	0.394	0.243	0.179	0.195
NCI-H1651	0.976	0.997	0.792	0.485	0.199	0.865	0.825	0.711	0.456	0.254
NCI-H1666	0.947	0.908	0.818	0.483	0.414	0.781	0.737	0.649	0.474	0.451
NCI-H1703	0.761	1.03	0.75	0.711	0.371	0.928	0.895	0.826	0.381	0.272
NCI-H1734	0.979	1.2	0.597	0.676	0.304	0.811	0.743	0.717	0.411	0.287
NCI-H1755	0.998	1.05	0.963	0.935	0.829	0.94	1	0.96	0.813	0.673
NCI-H1792	1.01	1.22	0.522	0.816	0.416	0.755	1.03	0.733	0.387	0.421
NCI-H1793	0.813	1.12	–	0.758	0.334	0.817	0.772	0.754	0.293	0.226
NCI-H1915	1	1.1	0.891	0.889	0.684	0.739	0.74	0.489	0.287	0.165
NCI-H1944	0.973	1.13	0.729	0.522	0.273	0.53	0.481	0.397	0.232	0.184
NCI-H1975	0.842	1.07	0.817	0.809	0.402	0.746	0.714	0.589	0.289	0.226
NCI-H1993	0.727	1.1	0.636	0.783	0.501	0.853	0.899	0.876	0.601	0.564
NCI-H2009	1.02	1.03	0.938	0.765	0.42	0.953	1.02	1.01	0.659	0.566
NCI-H2023	0.868	1.02	0.599	0.465	0.148	0.698	0.68	0.517	0.21	0.142
NCI-H2085	0.926	1.01	0.903	0.868	0.507	0.925	0.913	0.83	0.56	0.515
